Measured values from US12044651B2, “Sensor device and methods” (SCENTIAN BIO LIMITED, priority 2016, dated 2024).

Experiments:
OR35a = target: T1, OR35a (Drosophila melanogaster, UniProt Q9V3Q2); test: CNT-FET sensor covalently functionalized with Or35a nanodiscs (Example 3); type: binding
T1 sequence (Q9V3Q2 1-409): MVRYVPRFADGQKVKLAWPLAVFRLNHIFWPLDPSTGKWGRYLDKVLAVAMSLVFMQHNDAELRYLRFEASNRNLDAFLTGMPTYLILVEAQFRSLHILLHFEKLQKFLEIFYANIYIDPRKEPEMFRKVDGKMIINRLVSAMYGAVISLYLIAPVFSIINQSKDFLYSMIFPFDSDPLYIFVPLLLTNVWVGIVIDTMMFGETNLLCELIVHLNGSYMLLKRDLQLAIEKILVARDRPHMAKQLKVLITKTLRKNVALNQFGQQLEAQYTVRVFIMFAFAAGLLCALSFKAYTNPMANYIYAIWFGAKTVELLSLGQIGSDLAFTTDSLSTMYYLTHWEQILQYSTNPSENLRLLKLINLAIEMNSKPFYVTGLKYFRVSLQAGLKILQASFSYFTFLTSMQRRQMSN
Experimental: (§1) The dispersion was sonicated until a clear solution was obtained. The temperature was kept at 25° C. throughout the sonication process. The thiolpyridine solution was prepared by dissolving 10 mg of 2-Mercaptopyridine (99%, Sigma Aldrich) in 1 ml of methanol. The solution was spun coated on a polydimethylsiloxane (PDMS) surface at 2000 rpm for one minute. Before the spin coating process, the PDMS surface was cleaned by a 50 W Oxygen plasma for 1 minute to improve the wettability. The cleaned substrates were placed upside down on the PDMS surface for three minutes and washed in ethanol to remove the excess thiolpyridine molecules. Then the substrates were transferred into the CNT suspension and immersed into the suspension for 10 minutes. The samples were removed from the suspension and dipped into Ethanol for another 10 minutes to remove the thiolpyridine molecules in the SWNT network. The alignment markers were deposited by defining the markers by photolithography and thermal evaporation of 5 nm Chromium and 50 nm of Gold. The metal Lift off was done by acetone immersion for 15 minutes followed by an Isopropyl alcohol (IPA) wash and N2 blow dry. The result is a uniform thin film CNT network covering the entire substrate surface. The purification procedure is a variation on the one detailed in […] et al. 2013^14. […] Purity was assessed on Coomassie stained SDS-PAGE gels and Western blotting. […]

Or22a = target: T2, Or22a (Drosophila melanogaster, UniProt P81909); test: CNT-FET sensor covalently functionalized with Or22a nanodiscs (Example 3); type: binding
T2 sequence (P81909 1-397): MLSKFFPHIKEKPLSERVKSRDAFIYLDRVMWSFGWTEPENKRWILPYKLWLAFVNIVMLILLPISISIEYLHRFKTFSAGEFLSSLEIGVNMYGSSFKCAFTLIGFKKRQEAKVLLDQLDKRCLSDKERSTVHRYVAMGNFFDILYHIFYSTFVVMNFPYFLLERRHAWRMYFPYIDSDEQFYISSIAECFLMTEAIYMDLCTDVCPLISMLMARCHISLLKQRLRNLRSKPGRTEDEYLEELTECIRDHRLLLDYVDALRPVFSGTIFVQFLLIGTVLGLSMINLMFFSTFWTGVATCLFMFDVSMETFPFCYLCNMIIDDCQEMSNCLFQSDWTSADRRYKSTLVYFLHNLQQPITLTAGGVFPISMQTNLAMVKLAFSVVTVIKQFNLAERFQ
Experimental: as §1

[1] = real time current measurement mode

Row | SMILES | limit of detection (OR35a; nanodiscs 1:100 dilution) | concentration at which clear electronic response starts (OR35a; [1]) | limit of detection (Or22a; nanodiscs 1:100 dilution) | concentration at which clear electronic response starts (Or22a; [1])
1 | CCC/C=C/C=O [E2-hexenal] | below 1 fM | 1 fM |  | 
2 | CCCCCC(=O)OC [methyl hexanoate] |  |  | below 1 fM | 1 fM
